Test results: PubChem BioAssay AID1259407 (Chemical Carcinogenesis Research Information System (CCRIS), 2018)
Activity calls are given as the source filed them. The rule behind the calls is not given here.

Test system: CCRIS mutagenicity, Ames/micronucleus/aberration tests
Experiment: CCRIS mutagenicity studies
[1] = Test System: AMES SALMONELLA TYPHIMURIUM, Strain/Indicator: TA98, Metabolic Activation: NONE, Method: STANDARD PLATE
[2] = Test System: AMES SALMONELLA TYPHIMURIUM, Strain/Indicator: TA98, Metabolic Activation: RAT, LIVER, S-9, AROCLOR 1254, Method: STANDARD PLATE
[3] = Test System: AMES SALMONELLA TYPHIMURIUM, Strain/Indicator: TA100, Metabolic Activation: NONE, Method: STANDARD PLATE
[4] = Test System: AMES SALMONELLA TYPHIMURIUM, Strain/Indicator: TA100, Metabolic Activation: RAT, LIVER, S-9, AROCLOR 1254, Method: STANDARD PLATE
[5] = Test System: AMES SALMONELLA TYPHIMURIUM, Strain/Indicator: TA97, Metabolic Activation: NONE, Method: STANDARD PLATE
[6] = Test System: AMES SALMONELLA TYPHIMURIUM, Strain/Indicator: TA102, Metabolic Activation: NONE, Method: STANDARD PLATE

With `CC(C)N=C=NC(C)C` the mutagenic call (End Point: In vivo micronucleus, Test System: Bone marrow polychromatic erythrocytes, Species: Mouse, Strain/Sex: B6C3F1/Male, Route: Intraperitoneal) was “inactive; negative”, the mutagenic call (End Point: In vivo micronucleus, Test System: Bone marrow polychromatic erythrocytes, Species: Rat, Strain/Sex: F344/N/Male, Route: Intraperitoneal) was “inactive; negative” and the mutagenic call (End Point: In vivo micronucleus, Test System: Peripheral blood erythrocytes, Species: Mouse, Strain/Sex: B6C3F1/Female, Route: Dermal) was “active; positive; 100% mortality at 280 mg/kg”. The mutagenic call (End Point: In vivo micronucleus, Test System: Peripheral blood erythrocytes, Species: Mouse, Strain/Sex: B6C3F1/Male, Route: Dermal) was “active; positive; 100% mortality at 280 mg/kg”, the mutagenic call (End Point: In vivo micronucleus, Test System: Peripheral blood normochromatic and polychromatic erythrocytes and bone marrow polychromatic erythrocytes, Species: Mouse, Strain/Sex: B6C3F1/Male, Route: Dermal) was “inactive; positive (peripheral blood); negative (bone marrow)” and the mutagenic call (End Point: In vivo micronucleus, Test System: Polychromatic erythrocytes (Bone marrow and peripheral blood), Species: Mouse, Strain/Sex: B6C3F1/Male, Route: Intraperitoneal) was “active; positive in peripheral blood polychromatic erythrocytes; no significant increase”. For the same compound, the mutagenic call (Test System: AMES SALMONELLA TYPHIMURIUM, Strain/Indicator: TA98, Metabolic Activation: HAMSTER, LIVER, S-9, AROCLOR 1254, Method: STANDARD PLATE) was “inactive; negative”, the mutagenic call [1] was “inactive; negative” and the mutagenic call [2] was “inactive; negative”. The mutagenic call (Test System: AMES SALMONELLA TYPHIMURIUM, Strain/Indicator: TA100, Metabolic Activation: HAMSTER, LIVER, S-9, AROCLOR 1254, Method: STANDARD PLATE) was “inactive; negative”, the mutagenic call [3] was “inactive; negative” and the mutagenic call [4] was “inactive; negative”. For the same compound, the mutagenic call (Test System: AMES SALMONELLA TYPHIMURIUM, Strain/Indicator: TA1535, Metabolic Activation: HAMSTER, LIVER, S-9, AROCLOR 1254, Method: STANDARD PLATE) was “inactive; negative”, the mutagenic call (Test System: AMES SALMONELLA TYPHIMURIUM, Strain/Indicator: TA1535, Metabolic Activation: NONE, Method: STANDARD PLATE) was “inactive; negative” and the mutagenic call (Test System: AMES SALMONELLA TYPHIMURIUM, Strain/Indicator: TA1535, Metabolic Activation: RAT, LIVER, S-9, AROCLOR 1254, Method: STANDARD PLATE) was “inactive; negative”. The mutagenic call (Test System: AMES SALMONELLA TYPHIMURIUM, Strain/Indicator: TA1537, Metabolic Activation: HAMSTER, LIVER, S-9, AROCLOR 1254, Method: STANDARD PLATE) was “inactive; negative”, the mutagenic call (Test System: AMES SALMONELLA TYPHIMURIUM, Strain/Indicator: TA1537, Metabolic Activation: NONE, Method: STANDARD PLATE) was “inactive; negative” and the mutagenic call (Test System: AMES SALMONELLA TYPHIMURIUM, Strain/Indicator: TA1537, Metabolic Activation: RAT, LIVER, S-9, AROCLOR 1254, Method: STANDARD PLATE) was “inactive; negative”. For the same compound, the mutagenic call (Test System: AMES SALMONELLA TYPHIMURIUM, Strain/Indicator: TA1538, Metabolic Activation: HAMSTER, LIVER, S-9, AROCLOR 1254, Method: STANDARD PLATE) was “inactive; negative”, the mutagenic call (Test System: AMES SALMONELLA TYPHIMURIUM, Strain/Indicator: TA1538, Metabolic Activation: NONE, Method: STANDARD PLATE) was “inactive; negative” and the mutagenic call (Test System: AMES SALMONELLA TYPHIMURIUM, Strain/Indicator: TA1538, Metabolic Activation: RAT, LIVER, S-9, AROCLOR 1254, Method: STANDARD PLATE) was “inactive; negative”. The mutagenic call (Test System: Ames Salmonella typhimurium, Strain/Indicator: TA97, Metabolic Activation: None, Method: Preincubation) was “inactive; negative”, the mutagenic call (Test System: Ames Salmonella typhimurium, Strain/Indicator: TA97, Metabolic Activation: Rat, liver, S-9, Aroclor 1254, Method: Preincubation) was “inactive; negative” and the mutagenic call (Test System: Ames Salmonella typhimurium, Strain/Indicator: TA97, Metabolic Activation: Syrian hamster, liver, S-9, Aroclor 1254, Method: Preincubation) was “inactive; negative”. The mutagenic call (Test System: Ames Salmonella typhimurium, Strain/Indicator: TA98, Metabolic Activation: None, Method: Preincubation) was “inactive; negative”, the mutagenic call (Test System: Ames Salmonella typhimurium, Strain/Indicator: TA98, Metabolic Activation: Rat, liver, S-9, Aroclor 1254, Method: Preincubation) was “inactive; negative” and the mutagenic call (Test System: Ames Salmonella typhimurium, Strain/Indicator: TA98, Metabolic Activation: Syrian hamster, liver, S-9, Aroclor 1254, Method: Preincubation) was “inactive; negative”. For the same compound, the mutagenic call (Test System: Ames Salmonella typhimurium, Strain/Indicator: TA100, Metabolic Activation: None, Method: Preincubation) was “inactive; negative”, the mutagenic call (Test System: Ames Salmonella typhimurium, Strain/Indicator: TA100, Metabolic Activation: Rat, liver, S-9, Aroclor 1254, Method: Preincubation) was “inactive; negative” and the mutagenic call (Test System: Ames Salmonella typhimurium, Strain/Indicator: TA100, Metabolic Activation: Syrian hamster, liver, S-9, Aroclor 1254, Method: Preincubation) was “inactive; negative”. For the same compound, the mutagenic call (Test System: Ames Salmonella typhimurium, Strain/Indicator: TA1535, Metabolic Activation: None, Method: Preincubation) was “inactive; negative”, the mutagenic call (Test System: Ames Salmonella typhimurium, Strain/Indicator: TA1535, Metabolic Activation: Rat, liver, S-9, Aroclor 1254, Method: Preincubation) was “inactive; negative” and the mutagenic call (Test System: Ames Salmonella typhimurium, Strain/Indicator: TA1535, Metabolic Activation: Syrian hamster, liver, S-9, Aroclor 1254, Method: Preincubation) was “inactive; negative”. For the same compound, the mutagenic call (Test System: MOUSE LYMPHOMA, Strain/Indicator: L5178Y (TK+/TK-), Metabolic Activation: NONE, Method: SUSPENSION/PLATE) was “active; positive. reevaluation of results: positive” and the mutagenic call (Test System: MOUSE LYMPHOMA, Strain/Indicator: L5178Y (TK+/TK-), Metabolic Activation: RAT, LIVER, S-9, AROCLOR 1254, Method: SUSPENSION/PLATE) was “active; positive. reevaluation of results: positive”.

For `Cc1ccc2cc3ccc4ccccc4c3cc2c1`, the mutagenic call (Test System: AMES SALMONELLA TYPHIMURIUM, Strain/Indicator: TA100, Metabolic Activation: RAT, INTACT HEPATOCYTES, AROCLOR 1254, Method: PREINCUBATION) was “active; positive”, the mutagenic call (Test System: AMES SALMONELLA TYPHIMURIUM, Strain/Indicator: TA100, Metabolic Activation: RAT, NADPH-FORTIFIED HOMOGENIZED HEPATOCYTES, AROCLOR 1254, Method: PREINCUBATION) was “active; positive” and the mutagenic call (Test System: AMES SALMONELLA TYPHIMURIUM, Strain/Indicator: TA100, Metabolic Activation: RAT, SONICATED HEPATOCYTES, AROCLOR 1254, Method: PREINCUBATION) was “active; positive”.

With `CC1OC1c1ccc(C#N)cc1` (stereo not given) the mutagenic call (Test System: AMES SALMONELLA TYPHIMURIUM, Strain/Indicator: TA100, Metabolic Activation: NONE, Method: PREINCUBATION) was “active; positive”.

`O=S(=O)(c1cc(Cl)cc(Cl)c1O)c1cc(Cl)cc(Cl)c1O` was tested, and the mutagenic call [5] was “inactive; negative”, the mutagenic call (Test System: AMES SALMONELLA TYPHIMURIUM, Strain/Indicator: TA97, Metabolic Activation: RAT, LIVER, S-9, AROCLOR 1254, Method: STANDARD PLATE) was “inactive; negative” and the mutagenic call [1] was “inactive; negative”. The mutagenic call [2] was “inactive; negative”, the mutagenic call [3] was “inactive; negative” and the mutagenic call [4] was “inactive; negative”. For the same compound, the mutagenic call [6] was “inactive; negative” and the mutagenic call (Test System: AMES SALMONELLA TYPHIMURIUM, Strain/Indicator: TA102, Metabolic Activation: RAT, LIVER, S-9, AROCLOR 1254, Method: STANDARD PLATE) was “inactive; negative”.

`CC(=O)N[C@@H](CS)C(=O)O` was tested, and the mutagenic call (Test System: AMES SALMONELLA TYPHIMURIUM, Strain/Indicator: TA92, Metabolic Activation: NONE, Method: STANDARD PLATE) was “inactive; negative”, the mutagenic call (Test System: AMES SALMONELLA TYPHIMURIUM, Strain/Indicator: TA92, Metabolic Activation: RAT, KIDNEY, S-9, Method: STANDARD PLATE) was “active; positive” and the mutagenic call [5] was “inactive; negative”. The mutagenic call (Test System: AMES SALMONELLA TYPHIMURIUM, Strain/Indicator: TA97, Metabolic Activation: RAT, KIDNEY, S-9, Method: STANDARD PLATE) was “active; positive”, the mutagenic call [6] was “inactive; negative” and the mutagenic call (Test System: AMES SALMONELLA TYPHIMURIUM, Strain/Indicator: TA104, Metabolic Activation: NONE, Method: STANDARD PLATE) was “inactive; negative”. For the same compound, the mutagenic call (Test System: AMES SALMONELLA TYPHIMURIUM, Strain/Indicator: TA104, Metabolic Activation: RAT, KIDNEY, S-9, Method: STANDARD PLATE) was “active; positive” and the mutagenic call (Test System: CHINESE HAMSTER V-79, Strain/Indicator: V-79/6-THIOGUANINE, Metabolic Activation: NONE, Method: STANDARD PLATE) was “inactive; negative”.
